According to a melting point compilation (Tetko et al.; mined from patent text by program, amines drawn as free bases though some values may be those of a salt):

Row | SMILES | melting point
1 | COC1Nc2c(ccc(C)c2O)C(=O)N2CCCC12 (stereo not drawn) | 152 to 156 °C
2 | N#Cc1cc(N)c(F)c(-c2ccc(Cl)cc2)n1 | 185 to 188 °C
3 | Cc1nc(C)c(Cl)c(NCc2ccc(Oc3ccc4ncc([N+](=O)[O-])n4n3)cn2)n1 | 194 to 198 °C
4 | CCOCC(O)COc1cccc2oc(-c3ccccc3)cc(=O)c12 (stereo not drawn) | 85 to 86.5 °C
5 | O=C(O)CCCCCCCCCCn1nc(-c2ccccc2)c(-c2ccccc2)c1-c1ccccc1 | 81.5 to 84 °C
6 | Cc1ccc(-c2ccc3c(c2)C(=O)CC3)cc1 | 121 to 122 °C
7 | CCOC(=O)C1=C(C)NC(c2nccn2Cc2ccccc2)=NC1c1ccc(F)cc1 (stereo not drawn) | 162 to 164 °C
8 | CSc1ncc(C(=O)NC2CC2)c(Nc2ccc3cn[nH]c3c2)n1 | > 270 °C
9 | CC(C)[C@H](NC(=O)OCc1ccccc1)C(=O)N[C@@H](Cc1ccccc1)[C@@H](O)[C@@H](O)[C@H](Cc1ccccc1)NC(=O)OC(C)(C)C | 178 to 182 °C
10 | C=C1C[C@@H]2C(=O)OC(=O)[C@@H]2C1 | 50 to 51 °C
11 | CCOC(=O)CCCCc1oc(-n2ccnc2C)nc1-c1ccc(Cl)cc1 | 93 to 94 °C
12 | COC(=O)c1ccc(C#Cc2cc(C#Cc3ccc(C(=O)OC)cc3)cc(C#Cc3ccc(C(=O)OC)cc3)c2)cc1 | 177 °C
13 | COc1cccc2c1nc(C(F)F)n2-c1nc(Nc2ccc(N(C)S(C)(=O)=O)nc2)nc(N2CCOCC2)n1 | 250 to 253 °C
14 | CCN(CCCC12CC3CC(CC(C3)C1)C2)C(=O)NCCCc1ccncc1 | 97.5 to 98.2 °C
15 | CCCCOc1ccc(Cl)cc1C(=O)NCCc1ccc(CC(=O)OCC)cc1 | 80 °C
16 | O=C1CCn2c1ccc2C(=O)c1ccc(Cl)cc1 | 165 to 166 °C
17 | COc1ccc2c(c1O)NC(OC)C1CCCN1C2=O (stereo not drawn) | 154 to 156 °C
18 | CC1c2cccc3c2N(CC3)c2ccccc2N1C(=O)CCCCl (stereo not drawn) | 88 to 90 °C
19 | COC(=O)c1ccc(C(=O)c2cccnc2)cc1 | 144 to 146 °C
20 | Cc1ccc2c(c1)C(CCCCN1CCN(c3ccc(Cl)cc3)CC1)C(=O)N2 (stereo not drawn) | 159 to 161 °C
21 | CCCC(=O)Nc1n[nH]c2cc(-c3ccc(CC)cc3)ccc12 | 210 °C
22 | CCOC(=O)COc1ccc2ncnc(Nc3ccc(F)c(Cl)c3)c2c1 | 161 to 163 °C
23 | COc1ccc(C(=O)[C@H]2C[C@H]2C(=O)O)cc1 (relative stereo) | 170 to 172 °C
24 | COCc1c(NC2CC2)c([N+](=O)[O-])cc(F)c1N1CCN(C)CC1 | 89 to 90 °C

Row | SMILES | melting point
25 | CS(=O)c1ccc(C2=C(c3ccccc3)C(=O)C(C)(C)O2)cc1Cl (stereo not drawn) | 120 to 121 °C
26 | CC(C)c1ccc2nc(C(F)(F)F)c(C(=O)Nc3nccs3)c(O)c2c1 | 262 °C
27 | CCCCCn1c2ccccc2c2cc(C(=O)NCC(C)(C)C)ncc21 | 91 to 92 °C
28 | S=C(NCCc1ccc(Cl)cc1)Nc1nc2ccccc2[nH]1 | 173 to 182 °C
29 | N#Cc1nn(-c2c(Cl)cc(C(F)(F)F)cc2Cl)c(N)c1-c1cccc([N+](=O)[O-])c1 | 212 to 214 °C
30 | Cc1ccccc1C1(c2ccc(OC(F)F)cc2)N=C(N)N(C)C1=O (stereo not drawn) | 85 to 90 °C
31 | Cc1ccc(-c2cnc(-c3cc(C(F)(F)F)cc(C(F)(F)F)c3)s2)s1 | 120 to 121 °C
32 | CCCc1c(OCC(O)COc2cc(NC(=O)c3nnn[nH]3)c(C)cc2Br)ccc(C(C)=O)c1O (stereo not drawn) | 155 to 158 °C
33 | NS(=O)(=O)c1cnc(-c2cn(-c3nc(-c4ccc(Cl)cc4)cc(C(F)(F)F)n3)cn2)s1 | 263 °C
34 | CCCCn1nnnc1-c1c(O)ccc(-c2cccc(C(=O)O)c2)c1O | 261 to 264 °C
35 | c1cn(Cc2ccc3c(c2)-c2[nH]nc(-c4ccsc4)c2C3)cn1 | 200 to 204 °C
36 | Cc1nc[nH]c1C(=O)Nc1ccc(-n2nc(C3CC3)cc2C(F)(F)F)cc1 | 245 to 250 °C
37 | CCOC(=O)c1sc2ccc(O)c(C=O)c2c1Cl | 128 to 130 °C
38 | COc1ccc2cc(C(C)C(=O)OCC(=O)OCCO[N+](=O)[O-])ccc2c1 (stereo not drawn) | 44 to 45 °C
39 | Cc1c(CC(=O)O)c2cc(OCc3csc(-c4ccccc4)n3)ccc2n1Cc1ccc(Cl)cc1 | 150 to 151 °C
40 | O=C(O)c1csnc1-c1ccc(Cl)c(Cl)c1 | 247 to 248 °C
41 | N#Cc1cc(C(=O)NNC(=O)c2occ(-c3ccccc3)c2-c2ccccc2)ccc1O | 178 to 179 °C
42 | Nc1cccnc1-c1ccc2[nH]nc(Nc3nccs3)c2c1 | 282 to 283 °C
43 | CCCCCCCCC(CCC(=O)O)(CCC(=O)O)C(C)=O | 69 to 71 °C
44 | COc1ccc2c(c1)CC(=O)NC2=O | 212 to 215 °C
45 | COc1ccc(-n2cc(C(=O)O)c3nc4c(C)cccc4cc3c2=O)cc1OC | 297 to 298 °C
46 | COc1cc(C2=Nc3ccc(N4CCOCC4)cc3C(=O)C2)ccc1O | 297 to 299 °C
47 | CN(Cc1cc2c(=O)c(C(=O)NCc3ccc(Cl)cc3)cn(C)c2o1)CC(O)c1cc2ccccc2o1 (stereo not drawn) | 176 to 179 °C
48 | FC(F)c1nc2ccccc2n1-c1nc(Nc2cccnn2)nc(N2CCOCC2)n1 | 271 to 273 °C
